Results published in US7569352B2, “Method for identifying modulators of the dioxin/aryl hydrocarbon receptor (AHR)” (InDex Pharmaceuticals AB, priority 2003, dated 2009).

Legend:
TFF2 mRNA expression = test: RNA blot of TFF2 mRNA expression in mouse hepatoma cells exposed to TCDD; type: cell-based
Procedure: (§1) (A) RNA blot (30 μg total RNA) showing mRNA expression in mouse hepatoma cells of TFF2, CYP1A1 and the housekeeping gene GAPDH after exposure to increasing concentrations of TCDD. Mouse hepatoma cells were cultured in 6 cm petri dishes and exposed to TCDD dissolved in dimethyl sulfoxid (DMSO, 0.1% total volume) at concentrations indicated in the figure, or vehicle alone (“0 nM”) for 24 hours before cell harvest and RNA isolation. The band intensity of TFF2 (B) and CYP1A1 (C) was measured by Phosphor Imager analysis and normalized against expression of GAPDH. The numbers represent the fold increase of TFF2 and CYP1A1 mRNA expression compared to the corresponding vehicle-treated control.
(§2) (A) RNA blot (30 μg total RNA) showing mRNA expression in mouse hepatoma cells of TFF2, CYP1A1 and the housekeeping gene GAPDH after exposure to TCDD at increasing length of time. […] The band intensity of TFF2 (B) and CYP1A1 (C) was measured by Phosphor Imager analysis and normalized against expression of GAPDH. […]
(§3) The glandular part of mouse stomachs was removed and snap-frozen in liquid nitrogen. […] The filters were hybridized with specific 32P-labeled cDNA fragments and exposed to autoradiographic film and band intensity was quantified by Phosphoimager analysis (Fuji).

CYP1A1 mRNA expression = test: RNA blot of CYP1A1 mRNA expression in mouse hepatoma cells exposed to TCDD; type: cell-based
Procedure: as §1, §2, §3

[1] = 10 nM TCDD, increasing length of time, vs vehicle
[2] = increasing concentrations of TCDD, 24 hours, vs vehicle (DMSO)

For `Clc1cc2c(cc1Cl)Oc1cc(Cl)c(Cl)cc1O2` [TCDD, 2,3,7,8-tetrachlorodibenzo-p-dioxin], the “TFF2 mRNA expression normalized against GAPDH” value (TFF2 mRNA expression; [1]) was “time-dependent increase”, the “TFF2 mRNA expression normalized against GAPDH” value (TFF2 mRNA expression; [2]) was “concentration-dependent increase” and the “CYP1A1 mRNA expression normalized against GAPDH” value (CYP1A1 mRNA expression; [1]) was “time-dependent increase”. The “CYP1A1 mRNA expression normalized against GAPDH” value (CYP1A1 mRNA expression; [2]) was “concentration-dependent increase”.
